Assays:
oat, wild [1] = assay: Test C postemergence; format: in vivo, Avena fatua; details: 10 days
Summary of the method: (§1)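 Pre: seeds in loam/sand, directed soil spray. Post: 1–2 leaf plants, 2–10 cm. Cmpd in non-phytotoxic solvent + surfactant. Greenhouse 10 d; visual rating vs untreated, 0 = none, 100 = complete control.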

barnyardgrass [2] = assay: Test C preemergence; format: in vivo, Echinochloa crusgalli; details: for Barnyardgrass plant response rating: preemergence; for Plant response rating, Barnyardgrass: Preemergence
Summary of the method: as §1

wheat [3] = assay: Test C preemergence; format: in vivo, Triticum aestivum; details: for Plant response rating, Wheat: Preemergence; for Wheat plant response rating: preemergence
Summary of the method: as §1

ragweed [4] = assay: Test C postemergence; format: in vivo, Ambrosia artemisiifolia; details: 10 days
Summary of the method: as §1

pigweed, palmer [5] = assay: Test C preemergence; format: in vivo, Amaranthus palmeri; details: for Plant response rating, Pigweed, Palmer: Preemergence; for Pigweed, Palmer plant response rating: preemergence
Summary of the method: as §1

ryegrass, Italian [6] = assay: Test C preemergence; format: in vivo, Lolium multiflorum; details: for Plant response rating, Ryegrass, Italian: Preemergence; for Ryegrass, Italian plant response rating: preemergence
Summary of the method: as §1

barnyardgrass [7] = assay: Test C postemergence; format: in vivo, Echinochloa crusgalli; details: 10 days
Summary of the method: as §1

horseweed = assay: Test C postemergence; format: in vivo, Erigeron canadensis; details: 10 days
Summary of the method: as §1

barnyardgrass [8] = assay: Test D flooded paddy test; format: in vivo, Echinochloa crus-galli; details: 250 g ai/ha, applied to paddy water, visual rating after 13 to 14 days, scale 0 to 100 (0 no effect, 100 complete control)
Summary of the method: (§2)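 Compounds go straight into paddy water over 2-leaf plants in pots flooded to 3 cm. Greenhouse holding lasts 13 to 14 days. Injury is scored by eye against controls from 0 (none) to 100 (complete control).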

corn [9] = assay: Test C preemergence; format: in vivo, Zea mays; details: for Plant response rating, Corn: Preemergence; for Corn plant response rating: preemergence
Summary of the method: as §1

soybean [10] = assay: Test C preemergence; format: in vivo, Glycine max; details: for Plant response rating, Soybean: Preemergence; for Soybean plant response rating: preemergence
Summary of the method: as §1

corn [11] = assay: Test C postemergence; format: in vivo, Zea mays; details: 10 days
Summary of the method: as §1

galium = assay: Test C postemergence; format: in vivo, Galium aparine; details: 10 days
Summary of the method: as §1

soybean [12] = assay: Test C postemergence; format: in vivo, Glycine max; details: 10 days
Summary of the method: as §1

sedge, umbrella = assay: Test D flooded paddy test; format: in vivo, Cyperus difformis; details: 250 g ai/ha, applied to paddy water, visual rating after 13 to 14 days, scale 0 to 100 (0 no effect, 100 complete control)
Summary of the method: as §2

ryegrass, Italian [13] = assay: Test C postemergence; format: in vivo, Lolium multiflorum; details: 10 days
Summary of the method: as §1

rice = assay: Test D flooded paddy test; format: in vivo, Oryza sativa; details: 250 g ai/ha, applied to paddy water, visual rating after 13 to 14 days, scale 0 to 100 (0 no effect, 100 complete control)
Summary of the method: as §2

oat, wild [14] = assay: Test C preemergence; format: in vivo, Avena fatua; details: for Plant response rating, Oat, Wild: Preemergence; for Oat, Wild plant response rating: preemergence
Summary of the method: as §1

pigweed, palmer [15] = assay: Test C postemergence; format: in vivo, Amaranthus palmeri; details: 10 days
Summary of the method: as §1

green foxtail [16] = assay: Test C postemergence; format: in vivo, Setaria viridis; details: 10 days
Summary of the method: as §1

ragweed [17] = assay: Test C preemergence; format: in vivo, Ambrosia artemisiifolia; details: for Plant response rating, Ragweed: Preemergence; for Ragweed plant response rating: preemergence
Summary of the method: as §1

kochia [18] = assay: Test C postemergence; format: in vivo, Bassia scoparia; details: 10 days
Summary of the method: as §1

ducksalad = assay: Test D flooded paddy test; format: in vivo, Heteranthera limosa; details: 250 g ai/ha, applied to paddy water, visual rating after 13 to 14 days, scale 0 to 100 (0 no effect, 100 complete control)
Summary of the method: as §2

green foxtail [19] = assay: Test C preemergence; format: in vivo, Setaria viridis; details: for Plant response rating, Foxtail, Green: Preemergence; for Foxtail, Green plant response rating: preemergence
Summary of the method: as §1

blackgrass [20] = assay: Test C postemergence; format: in vivo, Alopecurus myosuroides; details: 10 days
Summary of the method: as §1

kochia [21] = assay: Test C preemergence; format: in vivo, Bassia scoparia; details: for Plant response rating, Kochia: Preemergence; for Kochia plant response rating: preemergence
Summary of the method: as §1

wheat [22] = assay: Test C postemergence; format: in vivo, Triticum aestivum; details: 10 days
Summary of the method: as §1

blackgrass [23] = assay: Test C preemergence; format: in vivo, Alopecurus myosuroides; details: for Plant response rating, Blackgrass: Preemergence; for Blackgrass plant response rating: preemergence
Summary of the method: as §1

[24] = 125 g ai/ha, postemergence, 0 to 100 scale, 0 no effect, 100 complete control
[25] = Postemergence, 500 g ai/ha, visual 0 to 100 scale (0 no effect, 100 complete control)
[26] = 500 g ai/ha, visual rating after 10 days, 0 to 100 scale (0 no effect, 100 complete control)
[27] = Test C, 125 g ai/ha, 0 to 100 scale (0 no effect, 100 complete control)
[28] = 500 g ai/ha, postemergence, 0 to 100 scale (0 no effect, 100 complete control)
[29] = Postemergence, 125 g ai/ha, 0 to 100 scale (0 no effect, 100 complete control)
[30] = 500 g ai/ha, 0 to 100 scale (0 no effect, 100 complete control)
[31] = 125 g ai/ha, 0 to 100 scale, 0 no effect, 100 complete control

## CCc1ncn(-c2cc3c(c(C(=O)N4C[C@H](C)Oc5c(Cl)cccc54)c2)OCCO3)n1 [Compound 155]
oat, wild [1]; [24]
  Plant response rating, Oat, Wild: 20
oat, wild [1]; [25]
  Plant response rating, Oat, Wild: 50
Barnyardgrass [2]; 125 g ai/ha, 0 to 100 scale (0 no effect, 100 complete control)
  Barnyardgrass plant response rating: 90
Barnyardgrass [2]; [26]
  Plant response rating, Barnyardgrass: 100
Wheat [3]; [26]
  Plant response rating, Wheat: 70
Wheat [3]; [27]
  Wheat plant response rating: 20
Ragweed [4]; [24]
  Plant response rating, Ragweed: 100
Ragweed [4]; [25]
  Plant response rating, Ragweed: 100
pigweed, palmer [5]; [26]
  Plant response rating, Pigweed, Palmer: 100
pigweed, palmer [5]; [27]
  Pigweed, Palmer plant response rating: 100
ryegrass, Italian [6]; [26]
  Plant response rating, Ryegrass, Italian: 90
ryegrass, Italian [6]; [27]
  Ryegrass, Italian plant response rating: 70
Barnyardgrass [7]; [24]
  Plant response rating, Barnyardgrass: 90
Barnyardgrass [7]; [25]
  Plant response rating, Barnyardgrass: 90
horseweed; [24]
  Plant response rating, Horseweed: 70
horseweed; [25]
  Plant response rating, Horseweed: 70
Barnyardgrass [8]
  Plant response rating, Barnyardgrass (Flood): 20
Corn [9]; [26]
  Plant response rating, Corn: 50
Corn [9]; [27]
  Corn plant response rating: 10
Soybean [10]; [26]
  Plant response rating, Soybean: 100
Soybean [10]; [27]
  Soybean plant response rating: 70
Corn [11]; [24]
  Plant response rating, Corn: 40
Corn [11]; [25]
  Plant response rating, Corn: 90
galium; [24]
  Plant response rating, Galium: 100
galium; [25]
  Plant response rating, Galium: 100
Soybean [12]; [24]
  Plant response rating, Soybean: 100
Soybean [12]; [25]
  Plant response rating, Soybean: 100
sedge, umbrella
  Plant response rating, Sedge, Umbrella (Flood): 98
ryegrass, Italian [13]; [24]
  Plant response rating, Ryegrass, Italian: 70
ryegrass, Italian [13]; [25]
  Plant response rating, Ryegrass, Italian: 100
rice
  Plant response rating, Rice (Flood): 15
oat, wild [14]; [26]
  Plant response rating, Oat, Wild: 50
oat, wild [14]; [27]
  Oat, Wild plant response rating: 30
pigweed, palmer [15]; [24]
  Plant response rating, Pigweed, Palmer: 90
pigweed, palmer [15]; [25]
  Plant response rating, Pigweed, Palmer: 100
Green foxtail [16]; [24]
  Plant response rating, Foxtail, Green: 90
Green foxtail [16]; [25]
  Plant response rating, Foxtail, Green: 90
Ragweed [17]; [26]
  Plant response rating, Ragweed: 100
Ragweed [17]; [27]
  Ragweed plant response rating: 60
Kochia [18]; [24]
  Plant response rating, Kochia: 80
Kochia [18]; [25]
  Plant response rating, Kochia: 90
ducksalad
  Plant response rating, Ducksalad (Flood): 60
Green foxtail [19]; [26]
  Plant response rating, Foxtail, Green: 100
Green foxtail [19]; [27]
  Foxtail, Green plant response rating: 100
Blackgrass [20]; [24]
  Plant response rating, Blackgrass: 90
Blackgrass [20]; [25]
  Plant response rating, Blackgrass: 100
Kochia [21]; [26]
  Plant response rating, Kochia: 90
Kochia [21]; [27]
  Kochia plant response rating: 80
Wheat [22]; [24]
  Plant response rating, Wheat: 60
Wheat [22]; [25]
  Plant response rating, Wheat: 80
Blackgrass [23]; [26]
  Plant response rating, Blackgrass: 90
Blackgrass [23]; [27]
  Blackgrass plant response rating: 50

## CCOC[C@H]1CN(C(=O)c2cc(-n3cnc(CC)n3)cc3c2OCCO3)c2cccc(Cl)c2O1 [Compound 387]
oat, wild [1]; [28]
  Plant response rating, Oat, Wild: 20
oat, wild [1]; [29]
  Plant response rating, Oat, Wild: 0
Barnyardgrass [2]; [30]
  Barnyardgrass plant response rating: 100
Barnyardgrass [2]; [31]
  Plant response rating, Barnyardgrass: 50
Wheat [3]; [30]
  Wheat plant response rating: 30
Wheat [3]; [31]
  Plant response rating, Wheat: 10
Ragweed [4]; [28]
  Plant response rating, Ragweed: 80
Ragweed [4]; [29]
  Plant response rating, Ragweed: 70
pigweed, palmer [5]; [30]
  Pigweed, Palmer plant response rating: 100
pigweed, palmer [5]; [31]
  Plant response rating, Pigweed, Palmer: 100
ryegrass, Italian [6]; [30]
  Ryegrass, Italian plant response rating: 80
ryegrass, Italian [6]; [31]
  Plant response rating, Ryegrass, Italian: 60
Barnyardgrass [7]; [28]
  Plant response rating, Barnyardgrass: 60
Barnyardgrass [7]; [29]
  Plant response rating, Barnyardgrass: 20
horseweed; [28]
  Plant response rating, Horseweed: 60
horseweed; [29]
  Plant response rating, Horseweed: 50
Barnyardgrass [8]
  Plant response rating, Barnyardgrass (Flood): 25
Corn [9]; [30]
  Corn plant response rating: 30
Corn [9]; [31]
  Plant response rating, Corn: 0
Soybean [10]; [30]
  Soybean plant response rating: 100
Soybean [10]; [31]
  Plant response rating, Soybean: 90
Corn [11]; [28]
  Plant response rating, Corn: 70
Corn [11]; [29]
  Plant response rating, Corn: 10
galium; [28]
  Plant response rating, Galium: 100
galium; [29]
  Plant response rating, Galium: 100
Soybean [12]; [28]
  Plant response rating, Soybean: 100
Soybean [12]; [29]
  Plant response rating, Soybean: 100
sedge, umbrella
  Plant response rating, Sedge, Umbrella (Flood): 70
ryegrass, Italian [13]; [28]
  Plant response rating, Ryegrass, Italian: 80
ryegrass, Italian [13]; [29]
  Plant response rating, Ryegrass, Italian: 40
rice
  Plant response rating, Rice (Flood): 10
oat, wild [14]; [30]
  Oat, Wild plant response rating: 70
oat, wild [14]; [31]
  Plant response rating, Oat, Wild: 40
pigweed, palmer [15]; [28]
  Plant response rating, Pigweed, Palmer: 100
pigweed, palmer [15]; [29]
  Plant response rating, Pigweed, Palmer: 90
Green foxtail [16]; [28]
  Plant response rating, Foxtail, Green: 80
Green foxtail [16]; [29]
  Plant response rating, Foxtail, Green: 40
Ragweed [17]; [30]
  Ragweed plant response rating: 100
Ragweed [17]; [31]
  Plant response rating, Ragweed: 80
Kochia [18]; [28]
  Plant response rating, Kochia: 100
Kochia [18]; [29]
  Plant response rating, Kochia: 80
ducksalad
  Plant response rating, Ducksalad (Flood): 20
Green foxtail [19]; [30]
  Foxtail, Green plant response rating: 100
Green foxtail [19]; [31]
  Plant response rating, Foxtail, Green: 50
Blackgrass [20]; [28]
  Plant response rating, Blackgrass: 90
Blackgrass [20]; [29]
  Plant response rating, Blackgrass: 60
Kochia [21]; [30]
  Kochia plant response rating: 100
Kochia [21]; [31]
  Plant response rating, Kochia: 20
Wheat [22]; [28]
  Plant response rating, Wheat: 30
Wheat [22]; [29]
  Plant response rating, Wheat: 10
Blackgrass [23]; [30]
  Blackgrass plant response rating: 20
Blackgrass [23]; [31]
  Plant response rating, Blackgrass: 0
